4 compounds from paper PMC6745035, “Novel tetrahydroacridine derivatives with iodobenzoic moieties induce G0/G1 cell cycle arrest and apoptosis in A549 non-small lung cancer and HT-29 colorectal cancer cells” (Molecular and Cellular Biochemistry, 2019) can be followed below.

Molecules are shown by their SMILES.

Data set [1] relates to A549 cells. Briefly: MTT cytotoxicity assay, A549. The class given is cell-based, human. As to conditions: Homo sapiens, A549; MTT, 24 h incubation; read-out: IC50 µM ± SD against A549. The text has this:
A549 cell line (lung carcinoma from human) (European Collection of Cell Culture) and HT-29 cell line (colorectal adenocarcinoma from human) (American Type Culture Collection) were chosen to evaluate the cytotoxicity of novel compounds.
(§1) The MTT assay was used to evaluate cell metabolic activity. The test principle is based on the determination of cell viability by measuring the metabolic activity in mitochondria. Enzymatically active mitochondria reduce the water-soluble MTT (3-(4,5-dimethylthiazol-2-yl)-2,5 diphenyltetrazoliumbromide) to blue–violet insoluble formazan. The number of viability cells is proportional to the colour intensity determined by photometric measurements (an analytical wavelength 570 nm) after dissolving the formazan in Dimethylsulfoxide (DMSO) (Serva) and Sorensen’s glycine buffer. MTT (Sigma Aldrich) was dissolved in Phosphate Buffered Saline (PBS) (PAN-Biotech) at a concentration of 0.5 mg/mL. Sorensen’s glycine buffer is made of 0.1 M glycine and 0.1 M NaCl, at pH 10.5. Studied compounds were dissolved in DMSO in order to receive stock solutions.
(§2) For the assay, cells were seeded into 96-well plates at density 10^4 cells per well and cultured for 24 h at 37 °C and 5% CO2. Then medium was removed, and cells were exposed to the 100 µL of the compound solutions over a range of concentrations (final DMSO concentration was below 0.2%) or nothing but culture medium (blank control). Pure DMSO was used as a positive control. After 24 h of incubation with the compound solutions, medium was removed and 50 µL of the MTT solution was added to each well and incubated in the dark for additional 2 h at 37 °C. Then the MTT solution was carefully removed and 100 µL of DMSO was added. Plates were incubated for 10 min at room temperature. Finally, 5 µL of Sorensen Buffer was added to each well. Plate was swayed, and the absorbance was measured by using microplate reader (Synergy H1, BioTek, Winooski, VT, USA) at a wavelength of 570 nm. The cell viability was expressed as a percentage of the control values (blank). The experiments were done in triplicate.

In data set [2] the test system is HT-29 cells. Briefly: MTT cytotoxicity assay, HT-29. It is filed as cell-based. As to conditions: Homo sapiens, HT-29; MTT, 24 h incubation; read-out: IC50 µM ± SD against HT-29.
From the text: as §1, §2

For the next data set, the system named is EA.hy926 cells. Briefly: MTT cytotoxicity assay, EA.hy926. As to conditions: Homo sapiens, EA.hy 926; MTT, 24 h incubation; read-out: IC50 µM ± SD against EA.hy926. The class given is cell-based, human.
From the text: The EA.hy926 cells (the human umbilical vein, somatic cell hybrid) (American Type Culture Collection) are immortalized human umbilical vein endothelial cells. They have morphological, phenotypic and functional characteristics of human endothelial cells, without the limited lifespan. This cell line has been considered as a good model for anticancer drug screening and was chosen to evaluate the endothelial cytotoxicity of novel compounds.
as §1, §2

Data set [3] has as its system HT-29 cells. Briefly: Apoptosis assay by annexin-V/PI double staining, HT-29. The class given is cell-based, human. As to conditions: HT-29, 24 h, compound at IC50 (1i 5.90 µM); control 8.62%. How it is done: Compounds were added to the cells and further incubated for 24 h. After treatment, monolayer and supernatant cells were harvested, washed with PBS and centrifuged (monolayer at 1200 rpm for 10 min, supernatant at 3500 rpm for 10 min). Then, cells were re-suspended in binding buffer and stained with 2 µL of Annexin-V and […] of PI (ANNEXIN-V—FITC Apoptosis Detection Kit, Immunostep) in the dark for 10 min at room temperature. Cells were analysed by BD Accuri C6 Flow Cytometry (Becton–Dickinson). Etoposide (Calbiochem) was used as a reference drug. Experiments were done in triplicates.

The next data set relates to PARP-1. As to the kind of experiment: Western blot of PARP-1 cleavage, HT-29. It is filed as cell-based, human. The note with it: HT-29, 24 h, IC50 and 1/2IC50. The procedure: (§3) Then, cells were treated with chosen compounds. After 24 h of incubation, monolayer and supernatant were harvested and washed in cold PBS. Cells were centrifuged—monolayer at 1200 rpm for 10 min, supernatant 3500 rpm for 10 min. Pellets were dissolved in RIPA Lysis and Extraction buffer (Bio-Rad) containing Phosphatase Inhibitor Cocktail 3 (Sigma Aldrich) and Protease Inhibitor Cocktail (Sigma Aldrich). Samples were incubated in ice for 30 min and mixed every 10 min. Then, samples were centrifuged at 12,000 rpm for 25 min. Protein concentration in supernatants was measured in triplicate using a Protein Assay (Bio-Rad). Proteins were separated by SDS–polyacrylamide gel electrophoresis. Separating and stacking gels were made of different ratios of water, Tris–HCl pH 6.8 and pH 8.8, 10% SDS (Sigma Aldrich), Acrylamide/bis-acrylamide (Sigma Aldrich), 10% APS (Sigma Aldrich), TEMED (Sigma Aldrich). 7.5% gels were prepared for analysis PARP-1, whereas 12% gels prepared for γ-H2AX. After separation on SDS–polyacrylamide gels, proteins were electroblotted on nitrocellulose membrane in Transfer Buffer (Glycine, Tris, Methanol). Membranes were washed in TBS/0.1% or 0.05% Tween20 solution and blocked in Tris-buffered saline with 5% of non-fated dried milk for 1 h. Membranes were then incubated overnight with primary antibodies—anti-PARP-1 (Cell Signaling Technology), anti-γ-H2A.X (Cell Signaling Technology), anti-β-actin (Cell Signaling Technology) in cold room (6 °C). After incubation, membranes well washed with TBS/Tween solution and blocked with and horseradish peroxidase-conjugated secondary antibodies (Bio-Rad) for 1 h in cold room. Protein bands were visualized using ECL™ Prime Western Blotting Detection Reagents (Sigma Aldrich) Healthcare and Carestream Kodak autoradiography GBX fixer/replenisher (Sigma Aldrich) with Developer and Replenisher (Carestream) in the dark room. Results were obtained on Autoradiography Film (Santa Cruz Biotechnology). Densitometric analysis was performed by using a software program (ImageJ). […]

The test system of a further data set is γ-H2AX. As to the kind of experiment: Western blot of γ-H2AX, HT-29. The class given is cell-based, human. As to conditions: HT-29, 24 h, IC50 and 1/2IC50. The procedure: as §3
Data set [4] deals with HT-29 cells. As to the kind of experiment: Reactive oxygen species assay (DCFH-DA), HT-29. It is filed as cell-based, human. As to conditions: compound at IC50 24 h plus H2O2, H2O2 only 1.88-fold. How it is done: After incubation, compounds were added into the wells and further incubated for next 24 h. H2O2 (1 mM) was added at 22nd h of incubation with compounds. H2O2 was used as a positive control. 30 min before the analysis, DCFH-DA (20 µM) was added to the wells. After incubation, cells were harvested and washed in PBS. Then, cells were centrifuged at 1500 rpm for 10 min. Medium was removed and cells were suspended in PBS. Analysis was performed on BD Accuri C6 Flow Cytometry (Becton–Dickinson).

For data set [5], the system named is 253J B-V and 253J B-V cisplatin-resistant cells.
The test system of a further data set is SH-SY5Y cells. Briefly: Cytoprotection against H2O2 (100 µM), MTT. The note with it: for Cells viability (%) ± SD after 24 h of incubation with compound and H2O2: H2O2 100 µM, H2O2 only 82.74%.
Data set [6] concerns A549 cells. Briefly: Colony forming assay, A549. The class given is cell-based, human. The text has this:
The plates were placed on ice.

Where [7] appears, read: Homo sapiens, 24 h, read-out: Cells viability (%) ± SD after 24 h of incubation with compound and H2O2.

On to `O=C(NCCCCNc1c2c(nc3ccccc13)CCCC2)c1ccccc1I` [Compound 1c], for which the 50% inhibitory concentration (IC50) with A549 cells [1] turned out to be 59.1 ± 5.86 µM; in the data set with HT-29 cells [2] it was 13.6 ± 1.39 µM; with EA.hy926 cells, 14.3 ± 1.65 µM. Also, the Total apoptotic cells in the data set with HT-29 cells [3] came to 12.96%. Besides, in the data set with PARP-1, the “Cleaved PARP-1 (89 kDa) level (in words)” value is “lower apoptosis at IC50 concentrations”. In the data set on γ-H2AX, the “γ-H2AX protein level / DNA damage (in words)” value was “lowest effect on DNA damage”. In addition, the “Increase in ROS level (DCF fluorescence) in comparison with non-treated control” value in the data set on HT-29 cells [4] was determined as 1.83 fold. The “Cytotoxic effect on cisplatin-resistant versus non-resistant 253J B-V cells (in words)” value in [5] is “resistant cells were more sensitive”. Also, the viability at 1 µM with SH-SY5Y cells (setting [7]) amounted to 101 ± 1.19%.

In the case of `O=C(NCCCCNc1c2c(nc3ccccc13)CCCC2)c1ccc(I)cc1` [Compound 1i], the IC50 is 14.9 ± 1.06 µM with A549 cells [1], 5.9 ± 0.42 µM with HT-29 cells [2] and 11.3 ± 0.89 µM with EA.hy926 cells. Also, the “Number of colonies expressed as percent of control number” value in the data set with A549 cells [6] (compound at 1/2IC50) is on record as 39.47%; in the data set with A549 cells [6] (compound at 2xIC50), 0%; in the data set with A549 cells [6] (compound at IC50) it was 4.70%. In the data set on HT-29 cells [3], this compound showed a Total apoptotic cells of 11.80%. The “Cleaved PARP-1 (89 kDa) level (in words)” value in the data set with PARP-1 is “highest PARP-1 cleavage”. The “γ-H2AX protein level / DNA damage (in words)” value in the data set with γ-H2AX is given as “strongest H2AX phosphorylation”. Moreover, the “Increase in ROS level (DCF fluorescence) in comparison with non-treated control” value in the data set with HT-29 cells [4] is on record as 1.85 fold. For the same compound, the “Neuroprotection against H2O2 (in words)” value in the data set on SH-SY5Y cells (H2O2 100 µM, 29.74, 14.87, 5.90 and 1 µM) is reported as “neuroprotection was not observed at any dose”. Also, the viability at 1 µM in the data set with SH-SY5Y cells (setting [7]) worked out at 29.7 ± 3.39%. In the data set with SH-SY5Y cells (setting [7]), the viability at 5.9 µM turned out to be 25.9 ± 1.24%. In the data set on SH-SY5Y cells (setting [7]), the viability at 14.87 µM was determined as 20.7 ± 1.45%. In the data set on SH-SY5Y cells (setting [7]), the viability at 29.74 µM was 18.7 ± 1.25%.

As for `O=C(NCCCNc1c2c(nc3ccccc13)CCCC2)c1cccc(I)c1` [Compound 1e], the IC50 in the data set with A549 cells [1] was 23.5 ± 2.6 µM; in the data set on HT-29 cells [2], 11 ± 0.59 µM; in the data set on EA.hy926 cells, 11.7 ± 0.62 µM. Moreover, the viability at 1 µM with SH-SY5Y cells (setting [7]) was 89.8 ± 8.55%.

For `O=C(NCCCNc1c2c(nc3ccccc13)CCCC2)c1ccccc1I` [Compound 1b], the IC50 with A549 cells [1] amounted to 32.5 ± 2.25 µM; with HT-29 cells [2], 16.1 ± 1.55 µM; in the data set on EA.hy926 cells, 22.4 ± 2.3 µM. The “Number of colonies expressed as percent of control number” value in the data set on A549 cells [6] (compound at 2xIC50) amounted to 3.55%. In addition, in data set [5], the “Cytotoxic effect on cisplatin-resistant versus non-resistant 253J B-V cells (in words)” value is “resistant cells were more sensitive”. Further, the “Cells viability (%) ± SD after 24 h of incubation with compound and H2O2” value with SH-SY5Y cells (concentration: 1b 16.26, 1c 6.79, 1e 11.75, 1f 4.26, 1i 5.90 µM) is listed as 64.61 ± 4.88 %; with SH-SY5Y cells (concentration: 1b 65.04, 1c 27.16, 1e 46.98, 1f 17.04, 1i 29.74 µM), 17.21 ± 1.18 %. Moreover, the viability at 1 µM in the data set with SH-SY5Y cells (setting [7]) is 99.2 ± 1.67%.
